Columns and labels:
[1] = tested on: chronic immobilization stress C57BL/6 mice; conditions: stress group, peptide diet vs normal diet
Experimental: A total of 28 male C57BL/6 mice at 7 weeks of age were divided into two groups: a control group (CTL) and a stress group (STR). The stress group was subjected to chronic immobilization stress for 15 days. Specifically, each mouse in the stress group was individually placed in a restrainer for 2 hours daily from […] to induce chronic immobilization stress. The control group (CTL) and stress group (STR) were further classified based on their diets. […] After the completion of the 15-day chronic immobilization stress, the mice were subjected to a sucrose preference test (SPT). Blood samples and prefrontal cortex (PFC) tissues were collected from the mice for subsequent test.
For the analysis of anti-depressive effect, blood and PFC tissues were collected from mice that underwent chronic immobilization stress. The blood collected from mice was centrifuged at 1,000×g for 10 minutes at 4° C. to separate the plasma, and the supernatant was collected and diluted 1/20 with PBS to prepare a sample. The corticosterone concentration in the plasma was then measured using the Corticosterone EIA kit (Cayman) by following the manufacturer's instructions.
In addition, the plasma diluted with PBS at a ⅓ ratio and the PFC tissue lysate (50 μg) were prepared. The ROS/RNS (reactive oxygen species/reactive nitrogen species) level in the plasma and PFC tissues was measured using the ROS/RNS assay kit (Cell Biolabs) according to the manufacturer's instructions.
In addition, the depression was evaluated by measuring the sucrose preference of mice that had undergone 15 days of chronic immobilization stress. The sucrose preference test was conducted over a total of 4 days. Equal amounts of 0.1 M sucrose solution and water were provided in identical bottles of the same size and shape. On the first day, mice were given access to 0.1 M sucrose solution and water for 24 hours. On the second day, the positions of the sucrose solution and water bottles were switched, and mice were given access for 24 hours. On the third day, no sucrose solution or water was provided. On the fourth day, mice were again given access to equal amounts of 0.1 M sucrose solution and water for 3 hours, the positions were then switched, and access was provided for another 3 hours. The amount of sucrose solution and water consumed during the 6-hour period on the fourth day was measured, and the sucrose preference (%) was calculated according to the following formula.
Sucrose preference (%)=Sucrose intake amount/(Water intake amount+Sucrose intake amount)×100

3xTG-AD mice = test: Cognitive function (ORT) and hippocampal ROS/RNS in Alzheimer's disease model; type: in vivo, mouse; conditions: 1xYQ diet
Experimental: To analyze the long-term memory capacity of animals following the peptide diet of the present invention, both the object recognition test (ORT) and object location recognition test (OLT) were conducted (FIG. 1). The tests consisted of three phases: habituation, familiarization, and test. During the habituation phase, the animals were acclimated to the testing apparatus for 10 minutes per day over two days. On the third day at the familiarization phase, the animals were allowed to explore two identical objects for 10 minutes. Subsequently, on the fourth day at the test phase, one of the objects was replaced with a novel object, and the animals were allowed to explore for 10 minutes, with result recorded during the initial 5 minutes was used as test data. The object recognition test (ORT) index was calculated using the following formula.
Discrimination index=(N−F)/(N+F) • N: Time spent for exploring new object • F: Time spent for exploring familiar object
The cognitive function of a 2-month-old mouse 3xTG-AD, which is a mouse model of modified Alzheimer's disease gene, and a 2-month-old normal C57BL/6 mouse was examined. After the examination, both were divided into two groups, and they were fed with either a normal diet (ND) or a diet supplemented with tyrosine-containing peptide (1xYQ). […]

[2] = tested on: renal ischemia-reperfusion C57BL/6 mice; conditions: 100 mg/kg oral, 24 hours of reperfusion
Experimental: Male C57BL/6 mice weighing 23 to 25 g were housed in a germ-free facility with controlled temperature and humidity. They were allowed free access to water and food. […] Renal ischemia was induced by midline laparotomy and occlusion of both renal pedicles using a Müller atraumatic vascular clamp for 25 minutes, followed by removal of the clamp for reperfusion. Control group (sham) underwent the same surgical procedures except the induction of ischemia using clamp. After 24 hours of reperfusion, the mice were sacrificed, and blood was collected from the heart, and the kidney tissue was harvested.
The collected blood was centrifuged at 3,000 rpm for 15 minutes to separate the serum, and the serum creatinine level, an indicator for evaluating kidney damage, was measured using the Jaffe method. The Jaffe method involves measuring the absorbance of the serum sample at 510 nm wavelength after reacting it with picric acid and then terminating the reaction with 60% acetic acid followed by measurement of absorbance, and calculating the concentration of creatinine in mg/mL units based on the difference in absorbance.
The total RNA was extracted from the kidney tissues using the Trizol method, and cDNA was synthesized using the RevertAid Reverse Transcription System (ThermoFisher). Quantitative PCR (qPCR) for inflammatory cytokines (IL-1β, IL-6, and MCP-1) was performed using the iQ SYBR Green Supermix (Bio-Rad) on the CFX Connect Real-Time PCR system (Bio-Rad). The relative amount of the target mRNA, normalized to GAPDH, was analyzed using the […].
The kidney tissue was homogenized in RIPA buffer, and protein quantification was performed using the BCA method. Western blot was then carried out using antibodies against nitrotyrosine and 4-hydroxynonenal (4-HNE), i.e., a product of lipid peroxidation.

## tyrosine-glutamine [YQ]
[1]
  ROS/RNS level in PFC tissue: decreased
  sucrose preference: increased
3xTG-AD mice; dementia animal model 3xTG-AD, 2 to 8 months of age
  cognitive function (ORT): slight improvement
3xTG-AD mice; dementia animal model
  ROS/RNS level in the hippocampal tissues: decrease
[2]; Western blot
  lipid peroxidation (4-HNE) in the kidney tissue: significantly reduced
  proteins with nitrated tyrosine in the kidney tissue: significantly reduced
[2]; qPCR
  increase in expression level of IL-1β in kidney tissue: statistically significantly inhibited
  increase in expression level of IL-6 in kidney tissue: statistically significantly inhibited
  increase in expression level of MCP-1 in kidney tissue: statistically significantly inhibited
